# In ChEMBL document CHEMBL3867482, “Design and synthesis of water soluble β-aminosulfone analogues of SCH 900229 as γ-secretase inhibitors” (Bioorg Med Chem Lett, 2016):
# Key:
# Mus musculus [1] = test: Antialzheimer activity in B6C3F1 mouse assessed as amyloid beta 40 level in plasma at 10 mg/kg, po administered as single dose after 3 hrs relative to control; type: functional
# Mus musculus [2] = test: Antialzheimer activity in B6C3F1 mouse assessed as amyloid beta 40 level in cortex at 10 mg/kg, po administered as single dose after 3 hrs relative to control; type: functional
# [3] = Inhibition of gamma-secretase in HEK293 cell membranes expressing human APP Swedish/London double mutant assessed as reduction in amyloid beta 40 formation after 1 hr by electrochemiluminescence based immunoassay
# Cytochrome P450 3A4 [4] = target: T1, Cytochrome P450 3A4 (Homo sapiens, UniProt P08684); test: Inhibition of CYP3A4 in human liver microsomes after 30 secs by LC/MS/MS analysis; type: ADME
# Cytochrome P450 2C9 = Cytochrome P450 2C9 (Homo sapiens, UniProt P11712); test: Inhibition of CYP2C9 in human liver microsomes after 30 secs by LC/MS/MS analysis; type: ADME
# Cytochrome P450 2D6 = Cytochrome P450 2D6 (Homo sapiens, UniProt P10635); test: Inhibition of CYP2D6 in human liver microsomes after 30 secs by LC/MS/MS analysis; type: ADME
# Cytochrome P450 3A4 [5] = target: T1, Cytochrome P450 3A4; test: Inhibition of CYP3A4 in human liver microsomes preincubated for 30 mins after 30 secs by LC/MS/MS analysis; type: ADME
# [6] = Clearance in human hepatocytes assessed per million cells by HPLC/atmospheric pressure chemical ionization/MS analysis; type: ADME, cell-based, Hepatocyte; settings: read-out: CLH
# [7] = Clearance in rat hepatocytes assessed per million cells by HPLC/atmospheric pressure chemical ionization/MS analysis; type: ADME, cell-based, Hepatocyte; settings: read-out: CLH
# [8] = Clearance in dog hepatocytes assessed per million cells by HPLC/atmospheric pressure chemical ionization/MS analysis; type: ADME, cell-based, Canis lupus familiaris, Hepatocyte; settings: read-out: CLH
# [9] = Clearance in monkey hepatocytes assessed per million cells by HPLC/atmospheric pressure chemical ionization/MS analysis; type: ADME, cell-based, Macaca mulatta, Hepatocyte; settings: rhesus monkey, read-out: CLH
# [10] = AUC (0 to 6 hrs) in mouse at 10 mg/kg, po by LC/MS/MS analysis; type: ADME, organism-based; parameters: time < 6 hr, dose 10 mg/kg, route oral; settings: in vivo
# [11] = Ratio of drug level in brain to plasma in mouse at 6 hrs; type: ADME, organism-based; settings: brain and plasma, read-out: BPR
# hERG (KCNH2) [12] = target: T2, hERG (KCNH2) (Homo sapiens, UniProt Q12809); test: Inhibition of human ERG at 10 uM by thallium flux assay
# hERG (KCNH2) [13] = target: T2, hERG (KCNH2); test: Inhibition of human ERG at 1 uM by Thallium flux assay
# Mus musculus [14] = test: Antialzheimer activity in B6C3F1 mouse assessed as reduction in amyloid beta 40 levels in plasma at 30 mg/kg, po after 6 hrs; type: functional; parameters: scale not given: the % may be the effect or the level left
# Mus musculus [15] = test: Antialzheimer activity in B6C3F1 mouse assessed as reduction in amyloid beta 40 levels in plasma at 30 mg/kg, po after 12 hrs; type: functional; parameters: scale not given: the % may be the effect or the level left
# Mus musculus [16] = test: Antialzheimer activity in B6C3F1 mouse assessed as amyloid beta 40 levels in plasma at 30 mg/kg, po after 24 hrs; type: functional
# Mus musculus [17] = test: Antialzheimer activity in B6C3F1 mouse assessed as reduction in amyloid beta 40 levels in cortex at 30 mg/kg, po after 6 hrs; type: functional; parameters: scale not given: the % may be the effect or the level left
# Mus musculus [18] = test: Antialzheimer activity in B6C3F1 mouse assessed as reduction in amyloid beta 40 levels in cortex at 30 mg/kg, po after 12 hrs; type: functional; parameters: scale not given: the % may be the effect or the level left
# Mus musculus [19] = test: Antialzheimer activity in B6C3F1 mouse assessed as reduction in amyloid beta 40 levels in cortex at 30 mg/kg, po after 24 hrs; type: functional; parameters: scale not given: the % may be the effect or the level left
# [20] = Dissociation constant, pKa of the compound; type: physicochemical
# [21] = Drug metabolism in rat assessed as N-demethylation; type: ADME
# [22] = Drug metabolism in rat assessed as beta-elemination; type: ADME
# [23] = Kinetic solubility of compound; type: physicochemical; settings: read-out: Kinetic_solubility
# T1 sequence (P08684 whole entry): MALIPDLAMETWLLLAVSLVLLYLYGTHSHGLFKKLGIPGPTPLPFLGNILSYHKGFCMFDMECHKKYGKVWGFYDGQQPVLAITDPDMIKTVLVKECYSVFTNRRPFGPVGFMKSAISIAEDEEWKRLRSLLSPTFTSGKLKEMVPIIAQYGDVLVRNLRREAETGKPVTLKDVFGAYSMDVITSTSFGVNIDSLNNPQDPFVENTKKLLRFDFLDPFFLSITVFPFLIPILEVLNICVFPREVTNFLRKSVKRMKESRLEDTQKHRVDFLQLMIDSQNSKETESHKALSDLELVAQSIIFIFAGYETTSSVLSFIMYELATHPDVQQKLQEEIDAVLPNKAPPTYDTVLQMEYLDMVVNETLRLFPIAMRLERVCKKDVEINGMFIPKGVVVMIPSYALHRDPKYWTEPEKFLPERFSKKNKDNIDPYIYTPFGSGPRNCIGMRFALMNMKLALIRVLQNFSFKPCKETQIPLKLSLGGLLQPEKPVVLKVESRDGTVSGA
# Sequence of Cytochrome P450 2C9 (P11712 whole entry): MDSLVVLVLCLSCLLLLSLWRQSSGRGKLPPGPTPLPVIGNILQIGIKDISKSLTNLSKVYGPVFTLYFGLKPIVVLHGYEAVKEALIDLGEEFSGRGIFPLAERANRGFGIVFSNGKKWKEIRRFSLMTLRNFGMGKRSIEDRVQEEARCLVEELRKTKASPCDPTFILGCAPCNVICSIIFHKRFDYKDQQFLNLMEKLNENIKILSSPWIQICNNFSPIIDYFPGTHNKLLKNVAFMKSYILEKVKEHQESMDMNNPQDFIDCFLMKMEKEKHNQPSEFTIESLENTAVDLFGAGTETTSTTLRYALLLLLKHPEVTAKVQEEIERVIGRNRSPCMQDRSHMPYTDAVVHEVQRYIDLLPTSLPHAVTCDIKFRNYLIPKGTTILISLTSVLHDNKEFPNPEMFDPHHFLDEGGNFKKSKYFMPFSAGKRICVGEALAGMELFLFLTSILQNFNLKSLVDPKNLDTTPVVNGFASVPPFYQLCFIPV
# Sequence of Cytochrome P450 2D6 (P10635 whole entry): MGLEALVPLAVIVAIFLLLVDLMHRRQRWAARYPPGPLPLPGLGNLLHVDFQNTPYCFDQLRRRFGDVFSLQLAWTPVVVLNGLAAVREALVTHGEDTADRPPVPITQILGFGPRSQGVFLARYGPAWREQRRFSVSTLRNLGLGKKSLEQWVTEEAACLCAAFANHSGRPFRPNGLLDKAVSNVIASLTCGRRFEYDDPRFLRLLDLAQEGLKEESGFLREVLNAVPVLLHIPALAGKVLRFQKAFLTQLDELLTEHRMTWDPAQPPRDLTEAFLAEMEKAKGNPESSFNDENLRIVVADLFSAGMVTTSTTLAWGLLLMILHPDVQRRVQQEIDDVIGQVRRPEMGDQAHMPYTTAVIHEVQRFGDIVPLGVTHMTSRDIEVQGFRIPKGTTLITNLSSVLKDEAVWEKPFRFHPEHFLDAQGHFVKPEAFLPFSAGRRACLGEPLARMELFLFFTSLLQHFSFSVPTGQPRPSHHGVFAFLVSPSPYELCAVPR
# T2 sequence (Q12809 whole entry): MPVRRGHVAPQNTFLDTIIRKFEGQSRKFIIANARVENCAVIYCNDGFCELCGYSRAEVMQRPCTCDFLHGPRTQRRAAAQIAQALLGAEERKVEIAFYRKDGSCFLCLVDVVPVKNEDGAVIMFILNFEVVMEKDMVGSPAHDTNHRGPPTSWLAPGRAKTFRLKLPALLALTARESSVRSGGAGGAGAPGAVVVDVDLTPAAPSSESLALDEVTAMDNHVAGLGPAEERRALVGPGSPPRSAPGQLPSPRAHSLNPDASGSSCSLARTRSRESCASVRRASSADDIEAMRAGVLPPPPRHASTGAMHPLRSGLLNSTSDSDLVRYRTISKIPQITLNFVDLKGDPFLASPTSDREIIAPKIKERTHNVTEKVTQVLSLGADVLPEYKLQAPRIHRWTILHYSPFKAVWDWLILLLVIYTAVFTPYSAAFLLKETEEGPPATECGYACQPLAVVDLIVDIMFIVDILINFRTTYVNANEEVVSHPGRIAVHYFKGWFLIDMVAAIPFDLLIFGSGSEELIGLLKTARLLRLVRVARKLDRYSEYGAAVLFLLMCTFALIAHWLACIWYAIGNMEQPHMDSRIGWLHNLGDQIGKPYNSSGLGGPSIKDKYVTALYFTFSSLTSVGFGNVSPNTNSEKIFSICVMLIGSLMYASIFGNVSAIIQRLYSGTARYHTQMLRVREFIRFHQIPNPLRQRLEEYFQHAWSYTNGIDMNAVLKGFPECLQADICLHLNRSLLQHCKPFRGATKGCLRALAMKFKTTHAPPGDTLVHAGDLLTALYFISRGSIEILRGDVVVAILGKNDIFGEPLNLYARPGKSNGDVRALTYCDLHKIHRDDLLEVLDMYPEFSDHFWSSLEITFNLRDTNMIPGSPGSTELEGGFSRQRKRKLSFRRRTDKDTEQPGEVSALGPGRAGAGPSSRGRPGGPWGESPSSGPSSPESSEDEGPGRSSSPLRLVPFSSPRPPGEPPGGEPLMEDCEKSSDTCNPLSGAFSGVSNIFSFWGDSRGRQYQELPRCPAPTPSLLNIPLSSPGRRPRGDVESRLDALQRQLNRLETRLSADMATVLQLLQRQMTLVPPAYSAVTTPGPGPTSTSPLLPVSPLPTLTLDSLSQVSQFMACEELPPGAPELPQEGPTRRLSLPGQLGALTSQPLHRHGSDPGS
SMILES,Activity (Mus musculus [1]),Activity (Mus musculus [2]),IC50 [3],IC50 (Cytochrome P450 3A4 [4]),IC50 (Cytochrome P450 2C9),IC50 (Cytochrome P450 2D6),IC50 (Cytochrome P450 3A4 [5]),hepatocyte CLint [6],hepatocyte CLint [7],hepatocyte CLint [8],hepatocyte CLint [9],AUC(0-t) at 6 h [10],Kp at 6 h [11],other results
CNCCS(=O)(=O)CC[C@@H]1OCC[C@@]2(S(=O)(=O)c3ccc(Cl)cc3)c3c(F)ccc(F)c3OC[C@@H]12,-44%,-61%,0.0041 µM,> 20 µM,> 20 µM,> 20 µM,8.4 µM,17.3 µL/min/1e6 cells,22.3 µL/min/1e6 cells,11.5 µL/min/1e6 cells,40.5 µL/min/1e6 cells,0.532 µM·h,0.4,inhibition at 10 µM (hERG (KCNH2) [12]): 21%; inhibition at 1 µM (hERG (KCNH2) [13]): 1%; Activity (Mus musculus [14]): 93%; Activity (Mus musculus [15]): 35%; Activity (Mus musculus [16]): 50%; Activity (Mus musculus [17]): 73%; Activity (Mus musculus [18]): 66%; Activity (Mus musculus [19]): 37%; pKa [20]: 7.7; Drug metabolism [21]: Metabolite_Notdetected; Drug metabolism [22]: Metabolite_Notdetected
CNC(C)(C)CCS(=O)(=O)CC[C@@H]1OCC[C@@]2(S(=O)(=O)c3ccc(Cl)cc3)c3c(F)ccc(F)c3OC[C@@H]12,-51%,-33%,0.0022 µM,> 20 µM,> 20 µM,> 20 µM,> 20 µM,20.4 µL/min/1e6 cells,25.8 µL/min/1e6 cells,23.5 µL/min/1e6 cells,55.1 µL/min/1e6 cells,0.477 µM·h,1,solubility kinetic [23]: > 20 µM
